{
  "source": "patent US9023864B2",
  "about": "“Indole derivatives as CRTH2 receptor antagonists” (Merck Sharp & Dohme Corp., priority 2009, dated 2015)",
  "data": [
    {"target": "T1, hCRTH2 (Homo sapiens, UniProt Q9Y5Y4)", "T1 construct": "expressed in transfected cells; host or cells: HEK cell line expressing hCRTH2 (HEK-hCRTH2); membranes", "T1 sequence (Q9Y5Y4 1-395)": "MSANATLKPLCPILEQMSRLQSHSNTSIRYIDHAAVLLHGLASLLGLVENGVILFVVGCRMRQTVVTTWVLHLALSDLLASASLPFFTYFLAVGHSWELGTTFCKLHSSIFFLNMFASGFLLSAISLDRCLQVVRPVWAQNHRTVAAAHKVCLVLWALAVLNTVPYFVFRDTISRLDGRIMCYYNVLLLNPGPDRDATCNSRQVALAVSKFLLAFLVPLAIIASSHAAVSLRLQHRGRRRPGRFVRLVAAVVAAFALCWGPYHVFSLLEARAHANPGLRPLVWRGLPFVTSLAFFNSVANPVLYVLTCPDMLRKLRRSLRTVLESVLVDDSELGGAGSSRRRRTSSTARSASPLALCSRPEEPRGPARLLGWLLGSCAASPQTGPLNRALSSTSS", "assay": "Radioligand binding assay ([3H]PGD2 competition, membranes from HEK-hCRTH2 cell line)", "conditions": "0.7 nM [3H]PGD2, membrane protein from HEK-hCRTH2 cell line, 60 min at room temperature; values given as ranges", "procedure": "Radioligand Binding Assay.\nRadioligand binding assays were performed at room temperature in 10 mM HEPES/KOH pH 7.4, 1 mM EDTA containing 10 mM MnCl2 and 0.7 nM [^3H]PGD2 (NEN, 171 Ci mmol^−1), in a final volume of 0.2 ml. Competing ligands were diluted in dimethylsulfoxide (Me2SO) that was kept constant at 1% (v/v) of the final incubation volume. The reaction was initiated by the addition of 8-20 μg of membrane protein prepared from a HEK-hCRTH2 cell line. Total and non-specific binding were determined in the absence and the presence of 10 μM PGD2, respectively. Under these conditions, specific binding (total minus non-specific) of the radioligand to the receptor reached equilibrium within 50 min and was stable up to 180 min. The reaction was routinely conducted for 60 min at room temperature and terminated by rapid filtration through prewetted Unifilters GF/C (Packard), using a Tomtec MachIII semi-automated harvester (for HEK-hCRTH2). The filters were then washed with 4 ml of the same buffer and residual radioligand bound to the filter was determined by liquid scintillation counting following equilibration in 25 μl Ultima Gold F™ (Unifilter) (Packard). The Ki (in nM) values for representative compounds of the present invention are as follows: ≦5: Examples 3.1, 5.1, 6.1, 7.1, 8.1/8A, 9.1, 26, 27.1, 28.1, 29.1, 30, 31.1, 31.3, 32.1, 32.4, 33.1, 34.1, 36.1, 38.1, 39, 40, 41; >5 and ≦10: Examples, 4, 5.3, 29.2; >10 and ≦50: Examples 1, 10, 14, 21, 22, 25, 31.4, 32.3, 35, 36.2, 37; >50 and ≦100: Examples 2, 5.4, 6.2, 27.2, 28.2; >100: Examples 3.2, 5.2, 7.2, 8.2, 9.2, 11, 12, 13, 15, 16, 17, 18, 19, 20, 23, 24, 31.2, 32.2, 33.2, 34.2, 38.2.", "units": {"Ki": "nM"}, "values": [
      {"smiles": "O=C(O)Cc1c2n(c3c(F)cccc13)CC(n1nncc1Cc1ccc(F)cc1)CC2", "note": "(single isomer, unassigned) [Example 8.2, {4-Fluoro-7-[5-(4-fluoro-benzyl)-[1,2,3]triazol-1-yl]-6,7,8,9-tetrahydropyrido[1,2-α]indol-10-yl}-acetic acid]", "Ki": "> 100"},
      {"smiles": "O=C(O)Cc1c2n(c3ccccc13)CC(n1nncc1COc1c(Cl)cccc1Cl)CC2", "note": "(stereo not drawn) [Example 4, (7-{5-[(2,6-dichlorophenoxy)methyl]-1H-1,2,3-triazol-1-yl}-6,7,8,9-tetrahydropyrido[1,2-α]indol-10-yl)acetic acid]", "Ki": "5 to 10"},
      {"smiles": "O=C(O)Cc1c2n(c3c(F)cccc13)CC(n1nncc1Cc1ccc(F)c(F)c1)CC2", "note": "(single isomer, unassigned) [Example 33.2, {7-[5-(3,4-difluorobenzyl)-1H-1,2,3-triazol-1-yl]-4-fluoro-6,7,8,9-tetrahydropyrido[1,2-a]-indol-10-yl}acetic acid]", "Ki": "> 100"},
      {"smiles": "CC(C)(c1ccc(F)cc1)c1cnnn1C1CCc2c(CC(=O)O)c3cccc(F)c3n2C1", "note": "(single isomer, unassigned) [Example 39, (4-Fluoro-7-{5-[1-(4-fluorophenyl)-1-methylethyl]-1H-1,2,3-triazol-1-yl}-6,7,8,9-tetrahydropyrido[1,2-a]indol-10-yl)acetic acid]", "Ki": "≤ 5"},
      {"smiles": "O=C(O)Cc1c2n(c3ccccc13)CC(n1nncc1Cc1ccccc1)CC2", "note": "(single isomer, unassigned) [Example 3.1, [7-(5-Benzyl-[1,2,3]triazol-1-yl)-6,7,8,9-tetrahydropyrido[1,2-α]indol-10-yl]-acetic acid]", "Ki": "≤ 5"},
      {"smiles": "O=C(O)Cc1c2n(c3ccccc13)CC(n1cc(-c3ccc(C(F)(F)F)cc3)nn1)CC2", "note": "(stereo not drawn) [Example 17, {7-[4-(4-Trifluoromethyl-phenyl)-[1,2,3]triazol-1-yl]-6,7,8,9-tetrahydropyrido[1,2-α]indol-10-yl}acetic acid]", "Ki": "> 100"},
      {"smiles": "O=C(O)Cn1c2c(c3ccccc31)CC(n1nncc1Cc1ccccc1)CC2", "note": "(single isomer, unassigned) [Example 9.1, [3-(5-Benzyl-[1,2,3]triazol-1-yl)-1,2,3,4-tetrahydro-carbazol-9-yl]-acetic acid]", "Ki": "≤ 5"},
      {"smiles": "O=C(O)Cc1c2n(c3ccccc13)CC(n1nncc1COc1ccccc1)CC2", "note": "(stereo not drawn) [Example 21, [7-(5-Phenoxymethyl-[1,2,3]triazol-1-yl)-6,7,8,9-tetrahydropyrido[1,2-α]indol-10-yl]-acetic acid]", "Ki": "10 to 50"},
      {"smiles": "O=C(O)Cc1c2n(c3ccccc13)CC(n1nncc1C(O)(c1ccc(F)cc1)c1ccc(F)cc1)CC2", "note": "(single isomer, unassigned) [Example 27.1]", "Ki": "≤ 5"},
      {"smiles": "CC(C)(O)c1ccc(-c2cn(C3CCc4c(CC(=O)O)c5ccccc5n4C3)nn2)cc1", "note": "(stereo not drawn) [Example 16, (7-{4-[4-(1-Hydroxy-1-methyl-ethyl)-phenyl]-[1,2,3]triazol-1-yl}-6,7,8,9-tetrahydropyrido[1,2-α]indol-10-yl)-acetic acid]", "Ki": "> 100"},
      {"smiles": "CC(c1ccccc1)c1cnnn1C1CCc2c(CC(=O)O)c3cccc(F)c3n2C1", "note": "(single isomer, unassigned) [Example 32.4, {4-Fluoro-7-[5-(1-phenyl-ethyl)-[1,2,3]triazol-1-yl]-6,7,8,9-tetrahydropyrido[1,2-α]indol-10-yl}-acetic acid]", "Ki": "≤ 5"},
      {"smiles": "O=C(O)Cc1c2n(c3ccccc13)CC(n1cc(-c3cccc4ccccc34)nn1)CC2", "note": "(stereo not drawn) [Example 18, [7-(4-Naphthalen-1-yl-[1,2,3]triazol-1-yl)-6,7,8,9-tetrahydropyrido[1,2-α]indol-10-yl]-acetic acid]", "Ki": "> 100"}
    ]}
  ]
}
